Data as given in patent US20060276393A1, “Novel compositions for preventing and treating neurodegenerative and blood coagulation disorders” (Sirtris Pharmaceuticals, Inc., priority 2005, published 2006).
Like-named read-outs stand apart in the source and are kept apart here.

What was measured:
recombinant human SIRT1 = biological target: T1, recombinant human SIRT1 (Homo sapiens, UniProt Q96EB6); experiment: SIRT1 fluorescent deacetylation assay (p53-382 acetylated peptide); assay type: biochemical
T1 sequence (Q96EB6 1-747): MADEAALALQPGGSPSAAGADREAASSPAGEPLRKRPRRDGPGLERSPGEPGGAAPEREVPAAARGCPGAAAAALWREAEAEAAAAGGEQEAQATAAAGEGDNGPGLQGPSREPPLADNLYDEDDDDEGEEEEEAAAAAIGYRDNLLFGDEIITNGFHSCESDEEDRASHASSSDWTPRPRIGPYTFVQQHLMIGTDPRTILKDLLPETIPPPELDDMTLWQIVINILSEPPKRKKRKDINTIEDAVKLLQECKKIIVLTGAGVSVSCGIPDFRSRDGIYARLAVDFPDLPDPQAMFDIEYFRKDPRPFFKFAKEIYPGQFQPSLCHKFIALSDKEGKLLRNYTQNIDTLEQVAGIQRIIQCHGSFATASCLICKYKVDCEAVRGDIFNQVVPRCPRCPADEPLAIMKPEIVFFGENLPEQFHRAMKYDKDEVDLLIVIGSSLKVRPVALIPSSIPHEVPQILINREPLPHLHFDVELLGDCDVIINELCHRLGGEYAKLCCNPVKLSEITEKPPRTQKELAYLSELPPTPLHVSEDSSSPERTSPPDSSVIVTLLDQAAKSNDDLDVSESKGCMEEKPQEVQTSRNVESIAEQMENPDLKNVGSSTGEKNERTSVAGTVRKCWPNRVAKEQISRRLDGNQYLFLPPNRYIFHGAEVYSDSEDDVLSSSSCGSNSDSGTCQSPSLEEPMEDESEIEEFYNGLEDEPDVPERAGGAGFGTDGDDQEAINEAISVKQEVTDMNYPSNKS

S. cerevisiae [1] = experiment: Yeast replicative lifespan; assay type: cell-based; details: for Average lifespan, growth on resveratrol: wild type untreated 21.0
S. cerevisiae [2] = experiment: Yeast chronological lifespan; assay type: cell-based; details: 10 μM or 100 μM, nutrient deprived state
rDNA locus (RDN1) = experiment: Ribosomal DNA recombination and silencing assays; assay type: cell-based, S. cerevisiae
Experimental: Pre-treated cells (RDN1::URA3) were harvested and spotted as 10-fold serial dilutions on either SC or SC with 5-fluororotic acid (5-FOA).
Ribosomal DNA silencing assays using the URA3 reporters were performed as previously described^26. Ribosomal DNA recombination frequencies were determined by plating W303AR cells^37 on YPD medium with low adenine/histidine and counting the fraction of half-red sectored colonies using Bio-Rad Quantity One software as previously described^35. At least 6000 cells were analyzed per experiment and all experiments were performed in triplicate.

[3] = 25 μM NAD+, 25 μM p53-382 acetylated peptide

## Oc1ccc(/C=C/c2cc(O)cc(O)c2)cc1 [Resveratrol, 3,5,4′-Trihydroxy-trans-stilbene]
Recombinant human SIRT1; 5 μM resveratrol, 50 μM nicotinamide
  apparent Km for NAD+ and acetylated substrate in presence of nicotinamide: raised
Recombinant human SIRT1; [3]
  concentration at which the activating effect doubled the rate: ~11 µM
  concentration at which the activating effect was essentially saturated: 100 µM
Recombinant human SIRT1; 25 μM NAD+, 25 μM p53-382 acetylated peptide, compounds at 100 μM
  SIRT1 stimulating activity (in words): most active compound overall
Recombinant human SIRT1; 100 μM resveratrol
  effect on the two Vmax determinations: no significant effect
Recombinant human SIRT1; 100 μM resveratrol, 1 mM acetylated peptide
  lowering of Km for NAD+: over 5 fold
Recombinant human SIRT1; 100 μM resveratrol, 1 mM p53-382 acetylated peptide
  Vmax (+resveratrol), NAD+ varied: 1749 AFU/min.
Recombinant human SIRT1; 100 μM resveratrol, 3 mM NAD+
  Vmax (+resveratrol), acetylated peptide varied: 926 AFU/min.
  decrease of acetylated peptide Km: 35 fold
Recombinant human SIRT1; 20 and 100 μM resveratrol, 50 μM nicotinamide
  Km for NAD+ and acetylated peptide in presence of nicotinamide: lowers the Km for both NAD^+ and acetylated peptide
Recombinant human SIRT1; read-out: Km for NAD+ (+resveratrol), 100 μM resveratrol, 1 mM p53-382 acetylated peptide
  Km: 101 µM
Recombinant human SIRT1; read-out: Km for p53-382 acetylated peptide (+resveratrol), 100 μM resveratrol, 3 mM NAD+
  Km: 1.8 µM
S. cerevisiae [1]; 10 μM
  increase of average lifespan: 70%
  maximum lifespan (in words): significantly increased maximum lifespan
  Average lifespan, growth on resveratrol: 35.7 generations
S. cerevisiae [1]; 10 μM compound, 2% glucose medium, wild type untreated 22.9
  Average lifespan: 36.8 generations
S. cerevisiae [1]; 100 μM
  Average lifespan, growth on resveratrol: 29.4 generations
S. cerevisiae [1]; 500 μM
  Average lifespan, growth on resveratrol: 29.3 generations
S. cerevisiae [1]; glucose restriction
  Average lifespan, glucose-restricted+resveratrol (CR+R): 39.9 generations
S. cerevisiae [1]; pnc1Δ untreated 19.2
  Average lifespan, pnc1Δ+resveratrol: 33.1 generations
S. cerevisiae [1]; sir2Δ untreated 9.9
  Average lifespan, sir2Δ+resveratrol: 10.0 generations
S. cerevisiae [1]; wild type untreated 19.0
  Average lifespan, wild type+resveratrol (wt+R): 37.8 generations
S. cerevisiae [2]
  chronological lifespan: failed to extend chronological lifespan
rDNA locus (RDN1); SIR2-dependent
  reduction of the frequency of rDNA recombination: ~60%
rDNA locus (RDN1); URA3 reporter, 5-FOA
  effect on rDNA silencing: only minor effects on rDNA silencing
rDNA locus (RDN1); with Sir2 inhibitor nicotinamide
  rDNA recombination in the presence of nicotinamide: decreased
